In brackets after ≈: the same amount, converted by molar mass.
Assays:
PBP2x 5204 = PBP2x 5204 (Streptococcus pneumoniae, UniProt P59676); test: PBP2x 5204 enzymatic inhibition assay (S2d hydrolysis, DTNB); format: biochemical, Streptococcus pneumoniae strain 5204; settings: residual activity of the enzyme at 1 mM inhibitor; 240 min
Protocol: PBP2x-5204 from Streptococcus pneumonia and N-benzoyl-D-alanyl-thioglycolate S2d[21], [22] were prepared as previously described. All assays with PBP2x 5204 were carried out in 96-well microtiter plates (Brand, Wertheim, Germany). PBP2x 5204 (0.6 µM) was incubated in the presence of the potential inhibitors in 10 mM sodium phosphate buffer (pH 7.0) containing 70 mM D-alanine and 0.01 mg/mL BSA, for 4 h at 25°C. This preincubation was used to also detect slow binding inhibitors. After the preincubation, the RA of PBP2x 5204 was determined. The initial rate of hydrolysis of 1 mM S2d in the presence of 1 mM DTNB was determined by monitoring the increase in absorbance at 412 nm (DTNB: ε[Δ ε] = […]) using a microplate absorbance reader (Power Wave X, Biotek Instruments, Winooski, U.S.A.). The rate of spontaneous hydrolysis of S2d in the presence of the potential inhibitors was also determined in the absence of PBP2x 5204. All of the assays were carried out in triplicate. The determination of the RA of PBP2x 5204 in the absence of inhibitors was carried out six times on each plate. A test compound was considered as an inhibitor if the RA was <80%. In this case, to reveal false positives, the assays were also carried out under the same conditions in the presence of 0.01% Triton X-100. As described in the literature, promiscuous inhibitors (false positives) are slow binding, noncompetitive inhibitors. To avoid detailed kinetic investigations, it is possible to identify such compounds by carrying out the assays in the presence of Triton X-100[14], [19]. Promiscuous inhibitors show no inhibition in the presence of Triton X-100. The IC50 values in the presence of Triton X-100 were determined if the RAs were <50%. (RA: ∼50%, IC50∼c, c: concentration of compound in the assay; RA >50%, IC50 > c). The RA was measured over a range of concentrations, from which the IC50 values were determined by non-linear regression analysis, using Sigma Plot (Systat software) and fitting the data to the equation y = y0+(a×b)/(b+x)[23].

PBP2a = target: T1, PBP2a (Staphylococcus aureus, UniProt P07944); test: PBP2a enzymatic inhibition assay (fluorescein-labeled ampicillin, residual penicillin binding activity); format: biochemical, Staphylococcus aureus ATCC 43300; settings: for remaining activity at 1000 µM: 4 h, residual activity of the enzyme at 1 mM inhibitor, 0.01% Triton X-100, mean of three experiments, read-out: PBP2a RA [%]; for IC50: in the presence of 0.01% Triton X-100
T1 construct: made in house
T1 sequence (P07944 whole entry): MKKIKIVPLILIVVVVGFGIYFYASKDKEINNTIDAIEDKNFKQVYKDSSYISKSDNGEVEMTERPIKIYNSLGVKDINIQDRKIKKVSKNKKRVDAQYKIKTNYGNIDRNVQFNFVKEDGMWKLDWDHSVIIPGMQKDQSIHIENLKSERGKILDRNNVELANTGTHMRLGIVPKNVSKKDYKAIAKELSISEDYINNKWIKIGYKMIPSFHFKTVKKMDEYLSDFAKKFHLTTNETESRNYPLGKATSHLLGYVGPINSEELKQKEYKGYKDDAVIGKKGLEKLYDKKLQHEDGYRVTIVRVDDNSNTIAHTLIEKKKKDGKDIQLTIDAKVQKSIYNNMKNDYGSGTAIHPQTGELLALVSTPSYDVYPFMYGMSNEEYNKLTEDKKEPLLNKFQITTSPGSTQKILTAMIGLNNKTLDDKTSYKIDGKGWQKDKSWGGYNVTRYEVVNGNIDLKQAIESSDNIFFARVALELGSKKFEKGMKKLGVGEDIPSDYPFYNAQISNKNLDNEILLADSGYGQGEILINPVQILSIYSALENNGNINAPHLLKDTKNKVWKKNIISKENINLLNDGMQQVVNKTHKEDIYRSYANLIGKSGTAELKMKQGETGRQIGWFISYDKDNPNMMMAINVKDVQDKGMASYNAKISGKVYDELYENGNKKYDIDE
Protocol: (§1) PBP2a from Staphylococcus aureus ATCC 43300 and PBP5fm from Enterococcus faecium D63r were overproduced and purified as described previously, [18].
(§2) Each of the purified PBPs (2.5 µM) were first incubated with 1 mM potential inhibitor in 100 mM phosphate buffer, 0.01% Triton X-100[19], pH 7, for 4 h at 30°C. Then, 25 µM fluorescein-labeled ampicillin[20] was added to detect the residual penicillin binding activity (RA). The samples were further incubated for 30 min at 37°C in a total volume of 20 µL. Denaturation buffer was added (0.1 M Tris/HCl, pH 6.8, containing 25% glycerol, 2% SDS, 20% β-mercaptoethanol and 0.02% bromophenol blue) and the samples were heated to 100°C for 1 min. The samples were then loaded onto a 10% SDS-acrilamide gel (10×7 cm) and electrophoresis was performed for 45 min at 180 V (12 mA). Detection and quantification of the RAs were with Molecular Image FX equipment and Quantity One software (BioRad, Hercules, CA, USA). Three independent experiments were carried out for each inhibitor.

[1] = test system: panel of five Gram-negative and 15 Gram-positive bacterial strains; test: In-vitro antibacterial activity (MIC), whole panel; format: cell-based; settings: summary over the whole panel; read-out: MICs for all of the bacterial strains under investigation
Protocol: (§3) Determination of the antibacterial activities was carried out on microtiter plates, in 200 µL (final volume) of Müeller-Hinton Broth (MHB), following EUCAST (European Committee on Antimicrobial Susceptibility testing)/CLSI (Clinical and Laboratory Standard Institute) recommended procedures, [25]. The compounds were solubilized in MHB, just before use. Inocula were prepared for each strain by resuspending isolated colonies from 18 h cultured plates. Equivalents of 0.5 Mac Farland turbidity standards (approximately 1×10^8 CFU mL^−1) were prepared in saline solution ([…]) and then diluted 200-fold in MBH.

[2] = test system: Citrobacter freundii ATCC 8090; test: In-vitro antibacterial activity (MIC, broth microdilution); format: cell-based; settings: ATCC8090
Protocol: as §3

[3] = test system: Enterococcus faecalis ATCC 29212; test: as above; format: cell-based; settings: ATCC29212
Protocol: as §3

[4] = test system: Staphylococcus aureus ATCC 43300 (MRSA); test: as above; format: cell-based
Protocol: as §3

[5] = test system: Staphylococcus epidermidis ATCC 12228; test: as above; format: cell-based; settings: ATCC12228
Protocol: as §3

[6] = test system: Enterococcus hirae ATCC 8790; test: as above; format: cell-based; settings: ATCC8790
Protocol: as §3

[7] = test system: Pseudomonas aeruginosa ATCC 27853; test: as above; format: cell-based; settings: ATCC27853
Protocol: as §3

[8] = test system: Proteus mirabilis ATCC 29936; test: as above; format: cell-based; settings: ATCC29936
Protocol: as §3

[9] = test system: Enterococcus faecium ATCC 19434; test: as above; format: cell-based; settings: ATCC19434
Protocol: as §3

[10] = test system: Streptococcus pneumoniae ATCC 33400; test: as above; format: cell-based; settings: ATCC33400
Protocol: as §3

[11] = test system: Escherichia coli ATCC 8739; test: as above; format: cell-based; settings: ATCC8739
Protocol: as §3

[12] = test system: Bacillus subtilis ATCC 6633; test: as above; format: cell-based; settings: ATCC6633
Protocol: as §3

[13] = test system: Listeria monocytogenes ATCC 14780; test: as above; format: cell-based; settings: ATCC14780
Protocol: as §3

[14] = test system: Streptococcus pneumoniae ATCC 49619; test: as above; format: cell-based; settings: ATCC49619
Protocol: as §3

[15] = test system: Staphylococcus aureus ATCC 25923; test: as above; format: cell-based; settings: ATCC25923
Protocol: as §3

[16] = test system: Klebsiella pneumoniae ATCC 13883; test: as above; format: cell-based; settings: ATCC13883
Protocol: as §3

[17] = test system: Micrococcus luteus ATCC 9341; test: as above; format: cell-based; settings: ATCC9341
Protocol: as §3

[18] = test system: Listeria innocua ATCC 33090; test: as above; format: cell-based; settings: ATCC33090
Protocol: as §3

[19] = test system: Staphylococcus aureus mp 1 (inducible MRSA); test: as above; format: cell-based
Protocol: as §3

[20] = test system: Streptococcus pneumoniae D39; test: as above; format: cell-based
Protocol: as §3

[21] = test system: Enterococcus faecalis ATCC 7937; test: as above; format: cell-based; settings: ATCC7937
Protocol: as §3

PBP5fm = PBP5fm (Enterococcus faecium, UniProt Q47759); test: PBP5fm enzymatic inhibition assay (fluorescein-labeled ampicillin, residual penicillin binding activity); format: biochemical, Enterococcus faecium D63r; settings: for activity at 1000 µM: 4 h, residual activity of the enzyme at 1 mM inhibitor, 0.01% Triton X-100, read-out: PBP5fm RA [%]; for IC50: in the presence of 0.01% Triton X-100
PBP5fm, sequence (Q47759 entry or part of it): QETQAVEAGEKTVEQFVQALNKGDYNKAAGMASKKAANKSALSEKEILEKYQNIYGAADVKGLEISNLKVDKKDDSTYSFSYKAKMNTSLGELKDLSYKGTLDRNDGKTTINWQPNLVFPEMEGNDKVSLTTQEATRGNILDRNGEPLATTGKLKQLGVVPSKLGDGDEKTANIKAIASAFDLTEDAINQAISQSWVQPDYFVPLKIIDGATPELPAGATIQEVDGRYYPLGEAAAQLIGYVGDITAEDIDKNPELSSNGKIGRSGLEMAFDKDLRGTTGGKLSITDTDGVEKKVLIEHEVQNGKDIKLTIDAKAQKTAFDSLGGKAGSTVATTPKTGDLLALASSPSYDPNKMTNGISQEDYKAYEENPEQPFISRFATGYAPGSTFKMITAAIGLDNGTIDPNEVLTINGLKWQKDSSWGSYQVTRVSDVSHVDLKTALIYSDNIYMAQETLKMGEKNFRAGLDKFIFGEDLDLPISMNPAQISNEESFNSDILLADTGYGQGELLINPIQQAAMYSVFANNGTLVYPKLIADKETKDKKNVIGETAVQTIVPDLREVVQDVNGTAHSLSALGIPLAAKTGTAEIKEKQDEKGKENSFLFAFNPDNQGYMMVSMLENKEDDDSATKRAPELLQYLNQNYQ
Protocol: as §1, §2

PBP2x 5204, sequence (P59676 49-750): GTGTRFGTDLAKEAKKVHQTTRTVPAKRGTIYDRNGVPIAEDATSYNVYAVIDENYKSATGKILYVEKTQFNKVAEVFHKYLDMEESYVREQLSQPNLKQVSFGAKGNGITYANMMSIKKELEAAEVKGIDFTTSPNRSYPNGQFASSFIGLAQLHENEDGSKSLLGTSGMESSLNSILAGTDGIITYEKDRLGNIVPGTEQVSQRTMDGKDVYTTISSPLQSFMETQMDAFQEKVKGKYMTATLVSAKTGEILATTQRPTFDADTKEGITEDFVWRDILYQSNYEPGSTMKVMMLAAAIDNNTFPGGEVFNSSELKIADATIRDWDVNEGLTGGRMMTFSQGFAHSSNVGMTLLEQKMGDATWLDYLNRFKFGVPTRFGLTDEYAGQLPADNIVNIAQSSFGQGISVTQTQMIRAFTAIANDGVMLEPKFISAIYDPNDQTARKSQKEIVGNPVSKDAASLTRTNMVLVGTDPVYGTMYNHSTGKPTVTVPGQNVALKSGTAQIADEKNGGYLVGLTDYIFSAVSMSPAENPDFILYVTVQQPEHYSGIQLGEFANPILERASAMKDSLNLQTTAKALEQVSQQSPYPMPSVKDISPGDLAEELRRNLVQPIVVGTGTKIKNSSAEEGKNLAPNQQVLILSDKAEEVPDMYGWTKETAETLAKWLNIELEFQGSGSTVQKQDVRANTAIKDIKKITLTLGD

| Compound | PBP2x5204 RA [%] (PBP2x 5204) | remaining activity at 1000 µM (PBP2a) | MIC [2] | MIC [3] | MIC [4] | MIC [5] | MIC [6] | MIC [7] | MIC [8] | MIC [9] | MIC [10] | MIC [11] | MIC [12] | MIC [13] | MIC [14] | MIC [15] | MIC [16] | MIC [17] | MIC [18] | MIC [19] | other results |
| --- | --- | --- | --- | --- | --- | --- | --- | --- | --- | --- | --- | --- | --- | --- | --- | --- | --- | --- | --- | --- | --- |
| NC(=O)c1cccc(NS(=O)(=O)c2cccc3cccnc23)c1 [compound 2, 3-(Quinoline-8-sulfonamido)benzamide] | 123% | 58% | > 512 µg/mL | > 512 µg/mL | > 512 µg/mL | > 512 µg/mL | > 512 µg/mL | > 512 µg/mL | > 512 µg/mL | > 512 µg/mL | > 512 µg/mL | > 512 µg/mL | > 512 µg/mL | > 512 µg/mL | > 512 µg/mL | > 512 µg/mL | > 512 µg/mL | > 512 µg/mL | > 512 µg/mL | > 512 µg/mL | MIC [1]: > 512 µg/mL; MIC [20]: > 512 µg/mL; MIC [21]: > 512 µg/mL; activity at 1000 µM (PBP5fm): 39%; IC50 (PBP5fm): 930 µM |
| CCCOc1cccc(C(=O)Nc2ccc(C)cc2C(=O)O)c1 [compound 10, 5-Methyl-2-(3-propoxybenzamido)benzoic acid] | 121% | 17% | > 512 µg/mL | 256 µg/mL (≈ 817 µM) | 256 µg/mL (≈ 817 µM) | 128 µg/mL (≈ 408 µM) | 128 µg/mL (≈ 408 µM) | > 512 µg/mL | > 512 µg/mL | 128 µg/mL (≈ 408 µM) | 2 µg/mL (≈ 6.38 µM) | > 512 µg/mL | 256 µg/mL (≈ 817 µM) | 32 µg/mL (≈ 102 µM) | 2 µg/mL (≈ 6.38 µM) | 128 µg/mL (≈ 408 µM) | > 512 µg/mL | 256 µg/mL (≈ 817 µM) | 256 µg/mL (≈ 817 µM) | 256 µg/mL (≈ 817 µM) | IC50 (PBP2a): 680 µM; MIC [20]: 2 µg/mL (≈ 6.38 µM); MIC [21]: 256 µg/mL (≈ 817 µM); activity at 1000 µM (PBP5fm): 69% |
| CCCOc1cccc(C(=O)Nc2ccccc2C(=O)O)c1 [compound 12, 2-(3-Propoxybenzamido)benzoic acid] | 97% | 47% | > 512 µg/mL | 256 µg/mL (≈ 855 µM) | 512 µg/mL (≈ 1710 µM) | 256 µg/mL (≈ 855 µM) | 256 µg/mL (≈ 855 µM) | > 512 µg/mL | > 512 µg/mL | > 512 µg/mL | 256 µg/mL (≈ 855 µM) | > 512 µg/mL | > 512 µg/mL | > 512 µg/mL | 256 µg/mL (≈ 855 µM) | 512 µg/mL (≈ 1710 µM) | > 512 µg/mL | 256 µg/mL (≈ 855 µM) | > 512 µg/mL | 512 µg/mL (≈ 1710 µM) | IC50 (PBP2a): 910 µM; MIC [1]: ≥ 256 µg/mL; MIC [20]: 256 µg/mL (≈ 855 µM); MIC [21]: > 512 µg/mL; activity at 1000 µM (PBP5fm): 34%; IC50 (PBP5fm): > 1000 µM |
